Read-outs that look alike come from different tables or passages of the source.
How the values were obtained:
[1] = system: SMN2 minigene (full length SMN2 minigene mRNA containing SMN2 exon 7); experiment: SMN2 minigene mRNA splicing RT-qPCR assay in cultured cells; assay type: cell-based, human; conditions: Homo sapiens, HEK293-H, read-out: EC1.5x for production of full length SMN2 mRNA
Method in brief: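 Full-length SMN2 minigene mRNA (exon 7 included), minigene-specific and not endogenous SMN, quantified by RT-qPCR multiplexed with GAPDH in stably transfected HEK293H cells after 24 h compound exposure at 37° C. Abundance from efficiency-corrected Ct, normalized to GAPDH and vehicle; EC1.5x reported as star bins.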

Smn protein = Smn protein assay in cultured cells (SMN HTRF); assay type: cell-based, human; conditions: 48 hours; for maximum fold (Fold) increase of Smn protein: SMA patient fibroblast cells, 7-point concentration data, fold increase relative to vehicle control (SMN HTRF); for EC1.5x (concentration giving 1.5-fold Smn protein increase): SMA Type 1 patient fibroblast cells (GM03813), 7-point concentration curve, SMN HTRF, concentration producing 1.5 times Smn protein vs DMSO vehicle control, read-out: EC1.5x for Smn protein expression
Method in brief: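 Smn in SMA fibroblast lysates, measured by anti-SMN HTRF after 48 h compound exposure; EC1.5x from fold change over vehicle.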

[2] = HEK293H cells stably transfected with SMN2-A minigene, 24 hours, 7-point concentration curve, 1.5-fold relative to vehicle-treated cells

**Q.** With `O=c1oc2cc(OC3CCNCC3)ccc2cc1-c1nc2ccccc2o1` [Cpd 20, 3-(1,3-benzoxazol-2-yl)-7-(piperidin-4-yloxy)-2H-chromen-2-one] as the molecule, how does the EC (1.5-fold) [1, 2] read?
**A.** 3 to 30 µM

**Q.** What about the “maximum fold (Fold) increase of Smn protein” value (“maximum fold (Fold) increase” below) (Smn protein) of the same molecule?
**A.** * (maximum fold increase of ≤1.2)

**Q.** And the melting point?
**A.** 198 to 201 °C

**Q.** Which EC (1.5-fold) [1, 2] does the source give for `Cc1cn2cc(-c3cc4ccc(N5CCN(CCO)CC5)cc4oc3=O)cc2c(C)n1` [Compound 685, 3-(1,3-dimethylpyrrolo[1,2-a]pyrazin-7-yl)-7-[4-(2-hydroxyethyl)piperazin-1-yl]-2H-chromen-2-one] here?
**A.** < 0.1 µM

**Q.** And the EC1.5x (concentration giving 1.5-fold Smn protein increase) (Smn protein)?
**A.** < 300 nM

**Q.** What about the “maximum fold (Fold) increase” value (Smn protein) of the same molecule?
**A.** **** (fold increase between >1.5 and ≤1.65)

**Q.** And the melting point?
**A.** 160 to 164 °C

**Q.** Which EC (1.5-fold) [1, 2] does the source give for `COc1cc(-c2cc3ccc(N4CCN[C@@H](C)C4)cc3oc2=O)ccc1C` [Compound 575, 3-(3-methoxy-4-methylphenyl)-7-[(3S)-3-methylpiperazin-1-yl]-2H-chromen-2-one] here?
**A.** 0.3 to 1 µM

**Q.** What about the “maximum fold (Fold) increase” value (Smn protein) of the same molecule?
**A.** * (maximum fold increase of ≤1.2)

**Q.** What about the melting point of the same molecule?
**A.** 166 to 170 °C

**Q.** With `CCN1CCC(c2ccc3cc(-c4cnc5nc(C)cn5c4)c(=O)oc3c2)CC1` [Compound 836, 7-(1-ethylpiperidin-4-yl)-3-(2-methylimidazo[1,2-a]pyrimidin-6-yl)-2H-chromen-2-one] as the molecule, how does the EC (1.5-fold) [1, 2] read?
**A.** 0.3 to 1 µM

**Q.** What about the EC1.5x (concentration giving 1.5-fold Smn protein increase) (Smn protein) of the same molecule?
**A.** 300 to 1000 nM

**Q.** And the “maximum fold (Fold) increase” value (Smn protein)?
**A.** ***** (fold increase >1.65)

**Q.** And the melting point?
**A.** 288 to 290 °C

**Q.** For `CC(=O)O.Cc1cn2cc(-c3cc4ccc(N5CCN(C)[C@H](C)C5)cc4oc3=O)nc2c(O)n1` [Compound 760, 7-[(3R)-3,4-dimethylpiperazin-1-yl]-3-(8-hydroxy-6-methylimidazo[1,2-a]pyrazin-2-yl)-2H-chromen-2-one acetate], which EC (1.5-fold) [1, 2] is on record?
**A.** 0.1 to 0.3 µM

**Q.** What about the “maximum fold (Fold) increase” value (Smn protein) of the same molecule?
**A.** *** (fold increase between >1.35 and ≤1.5)

**Q.** What about the melting point of the same molecule?
**A.** 304 to 306 °C

**Q.** What does the source list for `Cc1cn2cc(-c3cc4ccc(N5CCN6CCC[C@H]6C5)cc4oc3=O)cnc2n1` [Compound 649, 7-[(8aS)-hexahydropyrrolo[1,2-a]pyrazin-2(1H)-yl]-3-(2-methylimidazo[1,2-a]pyrimidin-6-yl)-2H-chromen-2-one]?
**A.** EC (1.5-fold) [1, 2]: 0.1 to 0.3 µM; EC1.5x (concentration giving 1.5-fold Smn protein increase) (Smn protein): 300 to 1000 nM; maximum fold (Fold) increase of Smn protein (Smn protein): ***** (fold increase >1.65); melting point: 295 to 297 °C

**Q.** Which EC (1.5-fold) [1, 2] does the source give for `O=c1oc2cc(N3CCNCC3)ccc2cc1-c1nc2ccccc2[nH]1` [Compound 313, 3-(1H-benzimidazol-2-yl)-7-(piperazin-1-yl)-2H-chromen-2-one] here?
**A.** 0.3 to 1 µM

**Q.** And the “maximum fold (Fold) increase” value (Smn protein)?
**A.** * (maximum fold increase of ≤1.2)

**Q.** And the melting point?
**A.** 254 to 258 °C

**Q.** What does the source list for `Cc1ccn2cc(-c3cc4ccc(N5CCN[C@H](C)C5)cc4oc3=O)nc2c1` [Compound 214, 3-(7-methylimidazo[1,2-a]pyridin-2-yl)-7-[(3R)-3-methylpiperazin-1-yl]-2H-chromen-2-one]?
**A.** EC (1.5-fold) [1, 2]: 0.3 to 1 µM; maximum fold (Fold) increase of Smn protein (Smn protein): ** (fold increase between >1.2 and ≤1.35); melting point: 222 °C

**Q.** For `COCCN1CCN(c2ccc3cc(-c4cc5cc(C)nc(C)c5o4)c(=O)oc3c2)CC1` [Compound 799, 3-(5,7-dimethylfuro[2,3-c]pyridin-2-yl)-7-[4-(2-methoxyethyl)piperazin-1-yl]-2H-chromen-2-one], which EC (1.5-fold) [1, 2] is on record?
**A.** < 0.1 µM

**Q.** And the EC1.5x (concentration giving 1.5-fold Smn protein increase) (Smn protein)?
**A.** < 300 nM

**Q.** What about the “maximum fold (Fold) increase” value (Smn protein) of the same molecule?
**A.** **** (fold increase between >1.5 and ≤1.65)

**Q.** And the melting point?
**A.** 235 to 237 °C

**Q.** Which EC (1.5-fold) [1, 2] does the source give for `Cc1cn2cc(-c3cc4ccc(CCCNCC5CCCO5)cc4oc3=O)nc2c(C)n1` (centres unmarked) [Compound 932, 3-(6,8-dimethylimidazo[1,2-a]pyrazin-2-yl)-7-{3-[(tetrahydrofuran-2-ylmethyl)amino]propyl}-2H-chromen-2-one] here?
**A.** < 0.1 µM

**Q.** What about the EC1.5x (concentration giving 1.5-fold Smn protein increase) (Smn protein) of the same molecule?
**A.** < 300 nM

**Q.** What about the “maximum fold (Fold) increase” value (Smn protein) of the same molecule?
**A.** **** (fold increase between >1.5 and ≤1.65)

**Q.** What about the melting point of the same molecule?
**A.** 147 to 150 °C

**Q.** What does the source list for `C[C@H]1CN(c2ccc3cc(-c4cn5cc(C6CC6)cc(F)c5n4)c(=O)oc3c2)CCN1` [Compound 498, 3-(6-cyclopropyl-8-fluoroimidazo[1,2-a]pyridin-2-yl)-7-[(3S)-3-methylpiperazin-1-yl]-2H-chromen-2-one]?
**A.** EC (1.5-fold) [1, 2]: 0.3 to 1 µM; maximum fold (Fold) increase of Smn protein (Smn protein): * (maximum fold increase of ≤1.2); melting point: 254 to 263 °C

**Q.** With `O=c1oc2cc(N3CCNCC3)ccc2cc1-c1ccncc1` [Compound 27, 7-(piperazin-1-yl)-3-(pyridin-4-yl)-2H-chromen-2-one] as the molecule, how does the EC (1.5-fold) ([1]; 24 h) read?
**A.** 1 to 3 µM

**Q.** What about the “maximum fold (Fold) increase” value (Smn protein) of the same molecule?
**A.** * (maximum fold increase of ≤1.2)

**Q.** What about the melting point of the same molecule?
**A.** 212 to 214 °C

**Q.** With `Cc1cccn2cc(-c3cc4c(F)cc(N5CCN(C)CC5)cc4oc3=O)nc12` [Compound 423, 5-fluoro-3-(8-methylimidazo[1,2-a]pyridin-2-yl)-7-(4-methylpiperazin-1-yl)-2H-chromen-2-one] as the molecule, how does the EC (1.5-fold) [1, 2] read?
**A.** 1 to 3 µM

**Q.** What about the “maximum fold (Fold) increase” value (Smn protein) of the same molecule?
**A.** * (maximum fold increase of ≤1.2)

**Q.** What about the melting point of the same molecule?
**A.** 232 to 237 °C

**Q.** Which EC (1.5-fold) [1, 2] does the source give for `O=c1oc2cc(N3CCNCC3)ccc2cc1-c1cccc(OC2CCC2)n1` [Compound 414, 3-[6-(cyclobutyloxy)pyridin-2-yl]-7-(piperazin-1-yl)-2H-chromen-2-one] here?
**A.** 3 to 30 µM

**Q.** And the “maximum fold (Fold) increase” value (Smn protein)?
**A.** * (maximum fold increase of ≤1.2)

**Q.** What about the melting point of the same molecule?
**A.** 166 to 168 °C

**Q.** What does the source list for `CSc1nccn2cc(-c3cc4ccc(N5C[C@@H](C)N[C@@H](C)C5)cc4oc3=O)nc12` [Compound 400, 7-[(3R,5S)-3,5-dimethylpiperazin-1-yl]-3-[8-(methylsulfanyl)imidazo[1,2-a]pyrazin-2-yl]-2H-chromen-2-one]?
**A.** EC (1.5-fold) [1, 2]: 3 to 30 µM; maximum fold (Fold) increase of Smn protein (Smn protein): * (maximum fold increase of ≤1.2); melting point: 283 to 285 °C

**Q.** With `C[C@@H]1CN(c2ccc3cc(-c4cn5cccc(Cl)c5n4)c(=O)oc3c2)C[C@H](C)N1` [Compound 120, 3-(8-chloroimidazo[1,2-a]pyridin-2-yl)-7-[(3R,5S)-3,5-dimethylpiperazin-1-yl]-2H-chromen-2-one] as the molecule, how does the EC (1.5-fold) [1, 2] read?
**A.** < 0.1 µM

**Q.** What about the EC1.5x (concentration giving 1.5-fold Smn protein increase) (Smn protein) of the same molecule?
**A.** < 300 nM

**Q.** What about the “maximum fold (Fold) increase” value (Smn protein) of the same molecule?
**A.** **** (fold increase between >1.5 and ≤1.65)

**Q.** What about the melting point of the same molecule?
**A.** 286 °C (dec.)

**Q.** With `Cc1cn2cc(-c3cc4ccc(N5CCCNCC5)cc4oc3=O)cc2c(C)n1` [Compound 682, 7-(1,4-diazepan-1-yl)-3-(1,3-dimethylpyrrolo[1,2-a]pyrazin-7-yl)-2H-chromen-2-one] as the molecule, how does the EC (1.5-fold) [1, 2] read?
**A.** < 0.1 µM

**Q.** What about the EC1.5x (concentration giving 1.5-fold Smn protein increase) (Smn protein) of the same molecule?
**A.** 1000 to 3000 nM

**Q.** What about the “maximum fold (Fold) increase” value (Smn protein) of the same molecule?
**A.** *** (fold increase between >1.35 and ≤1.5)

**Q.** And the melting point?
**A.** 187 to 190 °C

**Q.** Which results are given for `Cc1nccn2cc(-c3cc4ccc(N5CCCNCC5)cc4oc3=O)cc12` [Compound 587, 7-(1,4-diazepan-1-yl)-3-(1-methylpyrrolo[1,2-a]pyrazin-7-yl)-2H-chromen-2-one]?
**A.** EC (1.5-fold) [1, 2]: < 0.1 µM; EC1.5x (concentration giving 1.5-fold Smn protein increase) (Smn protein): < 300 nM; maximum fold (Fold) increase of Smn protein (Smn protein): **** (fold increase between >1.5 and ≤1.65); melting point: 210 to 213 °C

**Q.** Which results are given for `Cc1csc(-c2cc3ccc(N4C[C@@H](C)N[C@@H](C)C4)cc3oc2=O)n1` [Compound 286, 7-[(3R,5S)-3,5-dimethylpiperazin-1-yl]-3-(4-methyl-1,3-thiazol-2-yl)-2H-chromen-2-one]?
**A.** EC (1.5-fold) [1, 2]: 1 to 3 µM; maximum fold (Fold) increase of Smn protein (Smn protein): * (maximum fold increase of ≤1.2); melting point: 178 to 183 °C

Source: patent publication USRE47689E1, “Compounds for treating spinal muscular atrophy” (PTC Therapeutics, Inc., priority 2011, dated 2019)
